Assay results as given in patent US20220133842A1 (priority 2019, published 2022).
≈ marks a conversion by molar mass, not a printed value. Where two headings read alike, the source gives them in different places.

Tests used:
[1] = system: Clostridium perfringens (ATCC 13124); type: cell-based
[2] = system: Clostridium perfringens (ATCC 13124)
[3] = system: Clostridium botulinum (DSM 1985); assay: microbe, parasite or virus in culture; type: cell-based
[4] = system: Helicobacter pylori (ATCC 43504); assay: microbe, parasite or virus in culture; type: cell-based
[5] = system: Enterococcus faecalis (DSM 13591); assay: microbe, parasite or virus in culture; type: cell-based
[6] = system: Clostridium perfringens (ATCC13124); type: cell-based
[7] = system: Clostridium nexile (DSM 1787); assay: microbe, parasite or virus in culture; type: cell-based
[8] = system: Clostridium coccoides (DSM 935); assay: microbe, parasite or virus in culture; type: cell-based
IPEC-J2 cells [9] = conditions: pig
[10] = system: Caco-2 cells (ATCC HTB-37); assay: cells; type: cell-based, human; conditions: read-out: IC50 (concentration causing 50% cell death)
[11] = system: Bacteroides thetaioataomicron (DSM 2255); assay: microbe, parasite or virus in culture; type: cell-based
Caco-2 cells = conditions: human
IPEC-J2 cells [12] = assay: cells; type: cell-based, pig; conditions: read-out: IC50 (concentration causing 50% cell death)
T84 cells = conditions: human
[13] = system: Propionibacterium acnes (ATCC 6919); assay: microbe, parasite or virus in culture; type: cell-based
[14] = system: Clostridium propionicum (DSM 6251); assay: microbe, parasite or virus in culture; type: cell-based
[15] = system: Lactobacillus acidophilus (DSM 20079); assay: microbe, parasite or virus in culture; type: cell-based
T84 cells (ATCC CCL-248) = assay: cells; type: cell-based, human; conditions: read-out: IC50 (concentration causing 50% cell death)
[16] = system: Clostridium difficile (DSM 1296); assay: microbe, parasite or virus in culture; type: cell-based
[17] = system: Streptococcus thermophilus (ATCC LMD-9); assay: microbe, parasite or virus in culture; type: cell-based
[18] = system: Streptococcus pyogenes (DSM 20565); assay: microbe, parasite or virus in culture; type: cell-based
[19] = system: human or porcine intestinal cells grown on inserts; conditions: human, pig
[20] = system: human (Caco-2 and T84) and pig (IPEC-J2) intestinal cells
[21] = system: Arthrobacter gandavensis (DSM 2447); type: cell-based
[22] = system: Escherichia coli (ATCC 8739); type: cell-based
[23] = system: Staphylococcus aureus MRSA USA300 (ATCC BAA-1717); type: cell-based
[24] = system: Aspergillus niger (ATCC 9142); type: cell-based
[25] = system: Aspergillus flavus (DSM 1959); type: cell-based
[26] = system: Citrobacter farmeri (ATCC 51633); type: cell-based
[27] = system: Mycobacterium smegmatis (ATCC 700084); type: cell-based
[28] = system: Fusarium oxysporum (DSM 62316); type: cell-based
[29] = system: Pseudomonas aeruginosa (CIP 107398); type: cell-based
[30] = system: Acinetobacter baumannii (CIP 110431); type: cell-based
[31] = system: Fusarium graminearum (DSM 1095); type: cell-based
[32] = system: Penicillium verrucosum (DSM 12639); type: cell-based
[33] = system: Micrococcus luteus (DSM 20030); type: cell-based
[34] = system: Citrobacter rodentium (ATCC 51116); type: cell-based
[35] = system: Aspergillus ochraceus (DSM 824); type: cell-based
[36] = system: Shigella flexneri (ATCC 12022); type: cell-based
[37] = system: Salmonella enterica (CIP 80.39); type: cell-based
[38] = system: Fusarium verticillioides (DSM 62264); type: cell-based
[39] = system: Lactococcus lactis (DSM 20481); type: cell-based
Bacillus cereus (DSM 31) = type: cell-based
[40] = system: Bacillus subtilis (DSM 347); type: cell-based
[41] = system: Candida albicans (DSM 10697); type: cell-based
[42] = system: Listeria monocytogenes (DSM 20600); type: cell-based
[43] = system: Klebsiella variicola (DSM 15968); type: cell-based
[44] = system: Staphylococcus aureus (ATCC 6538P); type: cell-based
[45] = system: Klebsiella pneumoniae (DSMZ 26371); type: cell-based
[46] = system: Clostridium perfringens (ATCC 13124); type: cell-based; remark: listed apart in the source
[47] = system: Clostridium perfringens strain (ATCC 13124) and clinical strains of Clostridium perfringens; type: cell-based

O=C(N[C@H](CO)[C@H](O)c1ccc([N+](=O)[O-])cc1)C(Cl)Cl [Chloramphenicol]
morphological phenotype (mechanism of action) ([1]; 5 times MIC, 2 hours, FM4-64FX and DAPI labelling): hypercondensation of bacterial DNA

CCCCCCCCCC(=O)N[C@@H](Cc1c[nH]c2ccccc12)C(=O)N[C@H](CC(N)=O)C(=O)N[C@@H](CC(=O)O)C(=O)N[C@@H]1C(=O)NCC(=O)N[C@@H](CCCN)C(=O)N[C@@H](CC(=O)O)C(=O)N[C@H](C)C(=O)N[C@@H](CC(=O)O)C(=O)NCC(=O)N[C@H](CO)C(=O)N[C@@H]([C@H](C)CC(=O)O)C(=O)N[C@@H](CC(=O)c2ccccc2N)C(=O)O[C@@H]1C [Daptomycin]
MIC ([2]; ATCC 13124): 8 µM (≈ 13 µg/mL) | MIC (mg/L) ([2]; ATCC 13124): 12.96 mg/L (≈ 8 µM)

Cc1ncc([N+](=O)[O-])n1CCO [Metronidazole]
MIC ([3]; Clostridium botulinum, DSM1985): 0.29 µM (≈ 0.0496 µg/mL) | MIC ([4]; Helicobacter pylori, ATCC 21031 / ATCC 43504): > 1500 µM | MIC ([5]; Enterococcus faecalis, DSM13591): > 1500 µM | MIC (mg/L) ([2]; Clostridium perfringens, ATCC13124): 1.60 mg/L (≈ 9.35 µM) | increase in MIC ([6]; after 7 days of contact): 10 fold | increase in MIC ([6]; after 9 days of contact): 50-100 fold | MIC ([7]; Faecalimonas nexilis, DSM1787): 2.34 µM (≈ 0.401 µg/mL) | MIC ([8]; Blautia producta, DSM935): 0.29 µM (≈ 0.0496 µg/mL) | transepithelial electrical resistance (IPEC-J2 cells [9]): 875 +/− 203 ohm.cm2 | IC50 ([10]; Homo sapiens, Caco-2, 48 h): > 1500 µM | MIC ([11]; Bacteroides, DSM2255): 2.34 µM (≈ 0.401 µg/mL) | transepithelial electrical resistance (Caco-2 cells): 252 +/− 13.7 ohm.cm2 | IC50 (IPEC-J2 cells [12]; Sus scrofa, IPEC-J2, 48 h): > 1500 µM | transepithelial electrical resistance (T84 cells): 293 +/− 12.3 ohm.cm2 | MIC ([13]; Cutibacterium acnes, ATCC6919): 1500 µM (≈ 257 µg/mL) | MIC ([14]; Anaerotignum propionicum, DSM6251): 1.17 µM (≈ 0.2 µg/mL) | MIC ([15]; Lactobacillus acidophilus, DSM20079): > 1500 µM | IC50 (T84 cells (ATCC CCL-248); Homo sapiens, T84, 48 h): > 1500 µM | MIC ([16]; Clostridioides difficile, DSM1296): 1.17 µM (≈ 0.2 µg/mL) | MIC ([17]; Streptococcus thermophilus): 1500 µM (≈ 257 µg/mL) | MIC ([18]; Streptococcus pyogenes, DSM20565): > 1500 µM | decrease in transepithelial electrical resistance [19]: 0-34% | toxicity to intestinal cells [20]: not toxic

Bafilomycin B1
MIC [21]: 3 µM | MIC [22]: >100 µM | MIC [3]: 30 µM | MIC [23]: 20 µM | MIC [24]: 100 µM | MIC [4]: >100 µM | MIC [25]: 3.25 µM | MIC [5]: 40 µM | MIC [26]: >100 µM | MIC [2]: 10 µM | MIC (mg/L) [2]: 8.15 mg/L | MIC [7]: 60 µM | MIC [27]: >100 µM | MIC [8]: 30 µM | MIC [11]: >100 µM | MIC [28]: 50 µM | MIC [29]: >100 µM | MIC [30]: >100 µM | MIC [13]: 60 µM | MIC [31]: 25 µM | MIC [32]: 6.25 µM | MIC [33]: 25 µM | MIC [14]: 25 µM | MIC [34]: >100 µM | MIC [35]: 6.25 µM | MIC [15]: 10 µM | MIC [36]: >100 µM | MIC [37]: >100 µM | MIC [38]: 50 µM | MIC [16]: >100 µM | MIC [39]: 50 µM | MIC (Bacillus cereus (DSM 31)): 25 µM | MIC [17]: 30 µM | MIC [40]: 20 µM | MIC [41]: 100 µM | MIC [42]: 50 µM | MIC [18]: 20 µM | MIC [43]: >100 µM | MIC [44]: 10 µM | MIC [45]: >100 µM

Destruxin A
MIC [21]: >100 µM | MIC [22]: >100 µM | MIC [3]: >100 µM | MIC [23]: >100 µM | MIC [24]: >100 µM | MIC [4]: >100 µM | MIC [25]: >100 µM | MIC [5]: >100 µM | MIC [26]: >100 µM | morphological phenotype (mechanism of action) [1]: hypercondensation of bacterial DNA | MIC (mg/L) [2]: 0.86 mg/L | change of MIC during exposure [6]: do not change or change only slightly | MIC [7]: >100 µM | MIC [27]: >100 µM | MIC [8]: >100 µM | IC50 [10]: > 100 µM | MIC [11]: >100 µM | MIC [28]: >100 µM | MIC [29]: >100 µM | MIC [30]: >100 µM | IC50 (IPEC-J2 cells [12]): > 100 µM | MIC [13]: >100 µM | MIC [31]: >100 µM | MIC [32]: >100 µM | MIC [33]: >100 µM | MIC [14]: >100 µM | permeabilisation of the bacterial membrane [46]: no permeabilisation | MIC [34]: >100 µM | MIC [35]: >100 µM | MIC [15]: >100 µM | MIC [36]: >100 µM | IC50 (T84 cells (ATCC CCL-248)): > 100 µM | MIC [37]: >100 µM | MIC [38]: >100 µM | MIC [16]: >100 µM | MIC [39]: >100 µM | MIC (Bacillus cereus (DSM 31)): >100 µM | MIC [17]: >100 µM | MIC [40]: >100 µM | MIC [41]: >100 µM | MIC [42]: >100 µM | MIC [18]: >100 µM | MIC [43]: >100 µM | MIC [44]: >100 µM | toxicity to intestinal cells [20]: not toxic | minimum bactericidal concentrations (BMC values) [47]: identical to the MIC values | MIC [45]: >100 µM

Enniatin A1
MIC [22]: >100 µM | MIC [5]: 6.25 µM | MIC [2]: 6.25 µM | MIC (mg/L) [2]: 4.16 mg/L | IC50 [10]: 3.1 µM | MIC [29]: >100 µM | IC50 (IPEC-J2 cells [12]): 5.1 µM | IC50 (T84 cells (ATCC CCL-248)): 4.5 µM | MIC [40]: 25 µM | MIC [41]: 3.125 µM | MIC [44]: 25 µM | toxicity to intestinal cells [20]: toxic
